# According to PMC8050276, “Estradiol analogs attenuate autophagy, cell migration and invasion by direct and selective inhibition of TRPML1, independent of estrogen receptors” (Scientific Reports, 2021):
# Test system: TFEB
# Assay: TFEB shift / nuclear translocation upon nutrient starvation
# Assay type: cell-based, human
# Conditions: EDME 1 µM, Hbss
# Experimental: 5 × 10^4 wild-type human fibroblasts were seeded in a 12-well plate and treated overnight with DMSO or different TRPML1 inhibitors (EDME, PRU-10, PRU-12). The day after, cells were treated for 3 h in full media (Fed) or HBSS supplemented with 10 mM HEPES (nutrient starved) in presence of DMSO or different TRPML1 inhibitors (EDME, PRU-10, PRU-12). For autophagic flux experiments, cells were co-treated with 100 nM of bafilomycin A1 (Sigma).
# Total cell lysates were prepared using TRIS HCl 10 mM pH 8.0 and 0.2% SDS supplemented with protein and phosphatase inhibitors (Sigma). Protein concentration was determined using the Bradford method. After SDS–polyacrylamide gel electrophoresis (PAGE) and immunoblotting, the protein recognized by the specific antibody was visualized by chemiluminescence methods (Luminata Crescendo Western HRP substrate, Millipore) using HRP-conjugated anti-rabbit or anti-mouse secondary antibodies (Cell Signalling). Images were acquired using Li-Cor Odyssey Fc Imaging System and densitometric quantification of unsaturated images was performed using ImageJ software (NIH). Uncropped and unprocessed western blot scans are provided as Fig. S1. The following primary antibodies were used: LC3 (Novus Cat. No. NB100-2220, 1:1000 in 5% milk), TFEB (Cell Signaling Cat. No. 4240, 1:1000 in 5% BSA) and β-actin (Santa Cruz Cat. No. Sc-47778, 1: 1000 in 5% BSA).
compound,measurement,value
"COc1ccc2c(c1)CC[C@@H]1[C@@H]2CC[C@]2(C)[C@@H](O)CC[C@@H]12 [EDME, 17β-estradiol methyl ether]",TFEB molecular downshift induced by nutrient starvation,reduced
